Legend:
Assay type in all cases: biochemical
MMP-3 = target: T1, MMP-3 (Homo sapiens, UniProt P08254); assay: Automated MMP Profiling Assay, MMP-3 fluorogenic; conditions: for IC50: 96-well automated, P218
T1 construct: Truncated Prostromelysin-257 was expressed in a soluble form in E.coli; made in house; host or cells: E. coli
Text: This assay with each invention compound was run with the three enzymes MMP-3, MMP-9 and MMP-2 in parallel as adapted for a 96-well microtitre plate using a Hamilton A® workstation.

MMP-9 = target: T2, MMP-9 (Homo sapiens, UniProt P14780); assay: Automated MMP Profiling Assay, MMP-9 fluorogenic; conditions: for IC50: 96-well automated, P218
T2 construct: from tissue; host or cells: human polymorphonuclear leukocytes (PMN) from whole blood (New York Blood Center), PMA-stimulated supernatant

MMP-2 = target: T3, MMP-2 (Homo sapiens, UniProt P08253); assay: Automated MMP Profiling Assay, MMP-2 fluorogenic; conditions: for IC50: 96-well automated, P218, read-out: MMP-2 Fluorogenic IC50 (profiling)
T3 sequence (P08253 110-660): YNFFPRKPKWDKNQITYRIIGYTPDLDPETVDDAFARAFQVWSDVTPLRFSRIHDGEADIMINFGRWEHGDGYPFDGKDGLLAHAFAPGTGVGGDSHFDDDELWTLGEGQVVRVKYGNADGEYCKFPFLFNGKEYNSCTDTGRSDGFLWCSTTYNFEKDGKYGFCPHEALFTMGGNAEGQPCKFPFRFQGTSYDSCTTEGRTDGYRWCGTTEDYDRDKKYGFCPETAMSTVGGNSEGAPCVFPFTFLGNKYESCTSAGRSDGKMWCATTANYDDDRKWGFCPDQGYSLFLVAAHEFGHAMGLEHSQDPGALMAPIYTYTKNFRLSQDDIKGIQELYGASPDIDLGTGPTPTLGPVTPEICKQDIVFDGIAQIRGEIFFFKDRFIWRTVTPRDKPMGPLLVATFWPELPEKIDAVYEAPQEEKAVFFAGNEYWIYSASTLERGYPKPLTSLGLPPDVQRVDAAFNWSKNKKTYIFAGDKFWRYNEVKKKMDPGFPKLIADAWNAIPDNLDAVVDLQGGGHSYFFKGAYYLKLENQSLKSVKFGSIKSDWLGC

T2 sequence (P14780 107-707 limits assumed): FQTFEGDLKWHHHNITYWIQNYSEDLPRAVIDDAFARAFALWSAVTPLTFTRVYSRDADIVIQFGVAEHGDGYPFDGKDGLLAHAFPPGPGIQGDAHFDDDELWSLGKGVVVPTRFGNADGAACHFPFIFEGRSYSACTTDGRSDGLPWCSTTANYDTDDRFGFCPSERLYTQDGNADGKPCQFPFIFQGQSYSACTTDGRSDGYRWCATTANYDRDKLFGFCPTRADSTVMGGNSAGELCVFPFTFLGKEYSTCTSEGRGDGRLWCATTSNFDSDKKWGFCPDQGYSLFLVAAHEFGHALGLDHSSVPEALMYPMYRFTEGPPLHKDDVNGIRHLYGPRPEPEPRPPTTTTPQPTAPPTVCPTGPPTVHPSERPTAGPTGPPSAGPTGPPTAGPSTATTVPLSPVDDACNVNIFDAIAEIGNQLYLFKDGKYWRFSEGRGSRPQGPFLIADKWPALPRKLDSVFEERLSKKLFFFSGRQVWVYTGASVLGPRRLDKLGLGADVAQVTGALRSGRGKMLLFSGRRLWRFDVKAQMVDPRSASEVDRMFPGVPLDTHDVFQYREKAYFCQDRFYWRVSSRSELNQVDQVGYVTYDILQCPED
T1 sequence (P08254 100-274 limits assumed): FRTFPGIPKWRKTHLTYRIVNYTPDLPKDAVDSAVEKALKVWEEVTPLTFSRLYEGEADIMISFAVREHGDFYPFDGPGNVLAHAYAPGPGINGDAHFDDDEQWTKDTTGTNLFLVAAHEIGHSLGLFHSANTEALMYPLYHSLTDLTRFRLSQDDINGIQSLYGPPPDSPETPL

SMILES | IC50 (MMP-3) | inhibition at 5 µM (MMP-9) | IC50 (MMP-2) | IC50 (MMP-9) | inhibition at 5 µM (MMP-3) | inhibition at 5 µM (MMP-2)
CC(=O)OC[C@@H]1C[C@@H](C(=O)c2ccc(-c3ccc(Cl)cc3)cc2)[C@H]1C(=O)O (relative stereo) [Example 397, Cyclobutanecarboxylic acid, 2-[(acetyloxy)methyl]-4-[(4'-chloro[1,1'-biphenyl]-4-yl)carbonyl]-, (1α,2β,4α)-] | 3200 nM | 40% | 750 nM | – | – | –
O=C(O)[C@@H]1[C@@H](CN2C(=O)c3ccccc3C2=O)OC[C@H]1C(=O)c1ccc(-c2ccc(Cl)cc2)cc1 (relative stereo) [Example 403, 3-Furancarboxylic acid, 4-[(4'-chloro[1,1'-biphenyl]-4-yl)carbonyl]-2-[(1,3-dihydro-1,3-dioxo-2H-isoindol-2-yl)methyl]tetrahydro-, (2α,3β,4α)-] | 17 nM | – | 6.4 nM | 5.7 nM | – | –
O=C(O)[C@H]1[C@@H](SCc2ccccc2)CC[C@@H]1C(=O)c1ccc(-c2ccc(Cl)cc2)cc1 (relative stereo) [Example 440, Cyclopentanecarboxylic acid, 2-[(4'-chloro[1,1'-biphenyl]-4-yl)carbonyl]-5-[(phneylmethyl)thio]-, (1α,2β,5α)-] | 58 nM | – | 43 nM | 380 nM | – | –
O=C(O)[C@@H]1[C@@H](C(=O)c2ccc(-c3ccc(Cl)cc3)cc2)CC[C@H]1SCc1ccccc1 (relative stereo) [Example 441, Cyclopentanecarboxylic acid, 2-[(4'-chloro[1,1'-biphenyl]-4-yl)carbonyl]-5-[(phenylmethyl)thio]-, (1α,2β,5β)-] | 38 nM | – | 27 nM | 149 nM | – | –
O=C(CC(CCNC(=O)c1ccccc1C(=O)O)C(=O)O)c1ccc(-c2ccc(Cl)cc2)cc1 (single isomer, unassigned) [Example 280, [1,1'-Biphenyl]-4-butanoic acid, α-[2-[(2-carboxybenzoyl)amino]ethyl]-4'-chloro-γ-oxo-] | 146 nM | – | 29 nM | 66 nM | – | –
CCCCCOc1ccc(-c2ccc(C(=O)[C@H]3CC[C@@H](Sc4ccccc4)[C@@H]3C(=O)O)cc2)cc1 (single isomer, unassigned) [Example 319, Cyclopentanecarboxylic acid, 2-[[4'-(pentyloxy)[1,1'-biphenyl]-4-yl]carbonyl]-5-(phenylthio)-, (1α,2β,5β)-(+)-] | 30 nM | – | 4.1 nM | 197 nM | – | –
CCCCCOc1ccc(-c2ccc(C(=O)[C@H]3CC[C@@H](Sc4ccccc4)[C@@H]3C(=O)O)cc2)cc1 (single isomer, unassigned) [Example 320, Cyclopentanecarboxylic acid, 2-[[4'-(pentyloxy)[1,1'-biphenyl]-4-yl]carbonyl]-5-(phenylthio)-, (1α,2β,5β)-(-)-] | – | 6% | – | – | 6% | 24%
O=C(CC(CCCc1ccccc1)C(=O)O)c1ccc(-c2ccc(C(=O)O)o2)cc1 (stereo not drawn) [Example 69, 2-Furancarboxylic acid, 5-[4-(3-carboxy-1-oxo-6-phenylhexyl)phenyl]-] | – | 0% | – | – | 0% | 0%
O=C(CC(CCCc1ccccc1)C(=O)O)c1ccc(-c2cccnc2)cc1 (stereo not drawn) [Example 70, Benzenepentanoic acid, α-[2-oxo-2-[4-(3-pyridinyl)phenyl]ethyl]-] | – | 7% | 1750 nM | – | 44% | –
CCCCCOc1ccc(-c2ccc(C(=O)CC(CCCc3ccccc3)C(=O)O)cc2)cn1 (stereo not drawn) [Example 71, Benzenepentanoic acid, α-[2-oxo-2-[4-[6-(pentyloxy)-3-pyridinyl]phenyl]ethyl]-] | 1160 nM | 24% | 969 nM | – | – | –
CCCCCSc1ccc(-c2ccc(C(=O)CC(CCCc3ccccc3)C(=O)O)cc2)cc1 (stereo not drawn) [Example 72, [1,1'-Biphenyl]-4-butanoic acid, γ-oxo-4'-(pentylthio)-α-(3-phenylpropyl)-] | 409 nM | 22% | 90 nM | – | – | –
